From patent US20110046173A1 (priority 2009, published 2011)

How the values were obtained:
acute pain, bunionectomy = test: Efficacy (SPID48) of 3 to 2 product vs morphine vs oxycodone, bunionectomy study (Example 2); assay type: in vivo, human; settings: for Mean SPID48 Score: 48 hr; for pain control by SPID48 (judged analgesic dose): low doses alone: morphine 6 mg, oxycodone 4 mg
analgesia = settings: mouse, in vivo; cited from earlier work

Row | Structure (SMILES) | Mean SPID48 Score (acute pain, bunionectomy; 6 mg q6h) | Mean SPID48 Score (acute pain, bunionectomy; 12 mg q6h) | pain control by SPID48 (judged analgesic dose) (acute pain, bunionectomy) | interaction with morphine, morphine-6-β-glucuronide, codeine, and 6-acetylmorphine (analgesia) | Mean SPID48 Score (acute pain, bunionectomy; 4 mg q6h) | Mean SPID48 Score (acute pain, bunionectomy; 8 mg q6h)
1 | CN1CC[C@]23c4c5ccc(O)c4O[C@H]2[C@@H](O)C=C[C@H]3[C@H]1C5 [Morphine, morphine] | 51 | 106 | gave pain control |  |  | 
2 | CCC(=O)C(C[C@@H](C)N(C)C)(c1ccccc1)c1ccccc1 [L-methadone] |  |  |  | exhibited synergy |  | 
3 | COc1ccc2c3c1O[C@H]1C(=O)CC[C@@]4(O)[C@@H](C2)N(C)CC[C@]314 [Oxycodone, oxycodone] |  |  | gave pain control |  | 60 | 99
